Data published in ChEMBL document CHEMBL4257082, “Nhe3-binding compounds and methods for inhibiting phosphate transport” (2016).
Active and inactive are the calls of the source. No cut-off for these calls is given here.

Assays:
Rattus norvegicus [1] = assay: In vivo inhibition of NHE3 in Sprague-Dawley rat assessed as inhibition of sodium absorption from intestinal lumen by measuring urinary sodium concentration at 3 mg/kg, po via gavage measured after 16 hrs relative to control; format: functional; set-up: scale not given: the % may be the effect or the level left
[2] = Oral bioavailability in human; format: ADME, organism-based; settings: in vivo
Rattus norvegicus [3] = assay: Decrease in phosphorus urinary excretion in dietary salt-induced partial renal ablation Sprague-Dawley rat model of chronic kidney disease at 0.1 to 3 mg/kg/day added to normal chow pellets; format: functional, organism-based
Rattus norvegicus [4] = assay: Decrease in calcium urinary excretion in dietary salt-induced partial renal ablation Sprague-Dawley rat model of chronic kidney disease at 0.1 to 3 mg/kg/day added to normal chow pellets; format: functional, organism-based
Rattus norvegicus [5] = assay: In vivo inhibition of NHE3 in Sprague-Dawley rat assessed as inhibition of sodium absorption from intestinal lumen by measuring urinary sodium concentration at 1 mg/kg, po via gavage measured after 16 hrs relative to control; format: functional; set-up: scale not given: the % may be the effect or the level left
Rattus norvegicus [6] = assay: In vivo inhibition of NHE3 in Sprague-Dawley rat assessed as inhibition of sodium absorption from intestinal lumen by measuring urinary sodium concentration at 10 mg/kg, po via gavage measured after 16 hrs relative to control; format: functional; set-up: scale not given: the % may be the effect or the level left
[7] = target: Sodium/hydrogen exchanger 1 (Rattus norvegicus, UniProt P26431); assay: Inhibition of rat NHE1
[8] = target: T1, Sodium/hydrogen exchanger 2 (Oryctolagus cuniculus, UniProt P50482); assay: Inhibition of rabbit NHE2
T1 sequence (P50482 whole entry): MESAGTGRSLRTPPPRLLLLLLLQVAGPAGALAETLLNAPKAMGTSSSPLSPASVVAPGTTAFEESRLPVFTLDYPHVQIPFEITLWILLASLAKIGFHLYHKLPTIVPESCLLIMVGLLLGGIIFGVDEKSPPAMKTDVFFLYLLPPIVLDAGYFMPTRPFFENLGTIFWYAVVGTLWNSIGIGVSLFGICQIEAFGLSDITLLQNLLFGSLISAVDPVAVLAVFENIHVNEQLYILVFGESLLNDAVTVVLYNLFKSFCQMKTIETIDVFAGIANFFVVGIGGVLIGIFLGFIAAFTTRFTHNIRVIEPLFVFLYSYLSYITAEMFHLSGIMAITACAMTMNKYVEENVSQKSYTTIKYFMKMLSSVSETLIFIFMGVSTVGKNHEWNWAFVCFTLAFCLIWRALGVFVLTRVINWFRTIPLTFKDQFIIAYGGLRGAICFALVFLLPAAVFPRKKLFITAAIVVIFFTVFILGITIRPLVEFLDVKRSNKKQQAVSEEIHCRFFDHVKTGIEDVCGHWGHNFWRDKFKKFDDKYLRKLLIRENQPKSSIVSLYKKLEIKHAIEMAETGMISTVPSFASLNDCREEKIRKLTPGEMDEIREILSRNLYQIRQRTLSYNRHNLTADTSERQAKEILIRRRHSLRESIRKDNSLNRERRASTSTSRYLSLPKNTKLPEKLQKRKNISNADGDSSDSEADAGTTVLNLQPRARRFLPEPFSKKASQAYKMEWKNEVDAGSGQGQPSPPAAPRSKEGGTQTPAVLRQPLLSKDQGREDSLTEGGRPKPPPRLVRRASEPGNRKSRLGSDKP

[9] = target: Sodium/hydrogen exchanger 3 (Rattus norvegicus, UniProt P26433); assay: Inhibition of rat NHE3
[10] = target: T2, Sodium/hydrogen exchanger 5 (Homo sapiens, UniProt Q14940); assay: Inhibition of NHE5 (unknown origin)
T2 sequence (Q14940 whole entry): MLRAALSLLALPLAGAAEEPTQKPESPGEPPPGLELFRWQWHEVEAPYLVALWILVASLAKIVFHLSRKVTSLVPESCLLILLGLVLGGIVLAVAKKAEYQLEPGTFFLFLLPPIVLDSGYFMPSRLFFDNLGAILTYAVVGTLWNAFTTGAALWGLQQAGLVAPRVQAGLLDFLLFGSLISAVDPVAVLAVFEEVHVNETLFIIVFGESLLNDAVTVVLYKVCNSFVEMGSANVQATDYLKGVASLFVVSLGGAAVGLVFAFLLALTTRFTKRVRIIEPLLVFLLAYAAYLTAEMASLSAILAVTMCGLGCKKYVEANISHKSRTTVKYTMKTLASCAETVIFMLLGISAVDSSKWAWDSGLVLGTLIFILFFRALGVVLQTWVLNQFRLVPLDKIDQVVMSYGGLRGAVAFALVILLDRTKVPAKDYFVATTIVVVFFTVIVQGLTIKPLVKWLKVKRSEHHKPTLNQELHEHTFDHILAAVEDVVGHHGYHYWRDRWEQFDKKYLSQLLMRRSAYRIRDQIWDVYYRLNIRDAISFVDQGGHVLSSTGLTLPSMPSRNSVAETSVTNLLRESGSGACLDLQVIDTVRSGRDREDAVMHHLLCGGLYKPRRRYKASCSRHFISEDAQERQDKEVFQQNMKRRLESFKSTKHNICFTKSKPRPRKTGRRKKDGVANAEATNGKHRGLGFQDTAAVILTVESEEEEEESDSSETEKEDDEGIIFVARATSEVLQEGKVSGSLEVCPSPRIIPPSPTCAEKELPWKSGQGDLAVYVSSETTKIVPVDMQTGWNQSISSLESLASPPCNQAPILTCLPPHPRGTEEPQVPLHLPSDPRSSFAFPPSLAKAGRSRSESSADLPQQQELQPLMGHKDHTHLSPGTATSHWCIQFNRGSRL

Chain of Sodium/hydrogen exchanger 3 (P26433 whole entry): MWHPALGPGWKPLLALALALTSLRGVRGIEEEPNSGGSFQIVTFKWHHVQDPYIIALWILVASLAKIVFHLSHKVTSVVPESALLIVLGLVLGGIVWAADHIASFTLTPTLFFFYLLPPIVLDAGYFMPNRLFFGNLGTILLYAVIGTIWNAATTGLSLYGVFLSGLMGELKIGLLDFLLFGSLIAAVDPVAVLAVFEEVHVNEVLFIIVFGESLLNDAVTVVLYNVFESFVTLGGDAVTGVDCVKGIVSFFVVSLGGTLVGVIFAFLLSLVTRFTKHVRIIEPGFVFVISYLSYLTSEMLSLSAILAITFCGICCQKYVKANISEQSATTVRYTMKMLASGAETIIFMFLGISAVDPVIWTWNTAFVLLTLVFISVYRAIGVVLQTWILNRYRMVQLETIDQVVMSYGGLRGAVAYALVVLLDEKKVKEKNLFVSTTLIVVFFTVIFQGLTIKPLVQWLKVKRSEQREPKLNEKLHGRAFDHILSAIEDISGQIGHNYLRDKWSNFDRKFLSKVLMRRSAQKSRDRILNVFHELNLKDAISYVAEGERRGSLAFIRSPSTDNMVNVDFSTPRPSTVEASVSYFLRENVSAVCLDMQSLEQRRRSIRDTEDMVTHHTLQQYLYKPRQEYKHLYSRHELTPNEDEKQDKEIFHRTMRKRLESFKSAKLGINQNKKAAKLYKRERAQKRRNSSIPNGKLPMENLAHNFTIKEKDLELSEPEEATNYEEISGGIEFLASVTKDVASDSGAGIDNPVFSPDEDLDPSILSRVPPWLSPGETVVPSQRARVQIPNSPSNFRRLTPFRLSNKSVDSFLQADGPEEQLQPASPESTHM
Chain of Sodium/hydrogen exchanger 1 (P26431 whole entry): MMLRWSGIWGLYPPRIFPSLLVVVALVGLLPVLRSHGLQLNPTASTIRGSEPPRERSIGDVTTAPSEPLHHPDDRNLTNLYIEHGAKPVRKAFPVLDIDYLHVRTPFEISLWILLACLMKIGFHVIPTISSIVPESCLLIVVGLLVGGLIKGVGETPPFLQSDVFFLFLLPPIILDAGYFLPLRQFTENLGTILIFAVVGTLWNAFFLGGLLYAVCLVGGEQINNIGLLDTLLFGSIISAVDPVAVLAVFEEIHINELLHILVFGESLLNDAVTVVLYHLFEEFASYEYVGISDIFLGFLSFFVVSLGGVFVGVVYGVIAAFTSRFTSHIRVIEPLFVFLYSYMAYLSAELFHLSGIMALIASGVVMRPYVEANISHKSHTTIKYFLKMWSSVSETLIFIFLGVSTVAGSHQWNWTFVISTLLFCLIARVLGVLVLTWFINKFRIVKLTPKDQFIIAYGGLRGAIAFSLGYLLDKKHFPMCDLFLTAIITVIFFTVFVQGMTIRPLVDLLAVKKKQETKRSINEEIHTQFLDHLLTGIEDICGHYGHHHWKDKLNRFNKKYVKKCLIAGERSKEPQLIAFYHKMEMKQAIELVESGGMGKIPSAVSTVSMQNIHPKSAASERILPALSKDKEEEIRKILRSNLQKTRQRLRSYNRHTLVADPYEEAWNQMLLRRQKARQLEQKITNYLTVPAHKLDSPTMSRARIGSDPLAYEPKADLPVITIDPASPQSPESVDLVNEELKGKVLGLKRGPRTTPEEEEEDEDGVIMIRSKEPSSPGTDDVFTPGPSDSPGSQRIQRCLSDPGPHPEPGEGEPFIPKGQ

Row | SMILES | Activity (Rattus norvegicus [1]) | bioavailability [2] | further results
1 | CN1Cc2c(Cl)cc(Cl)cc2[C@H](c2ccc(S(=O)(=O)NCCOCCOCCNCCCC(CCC(=O)NCCOCCOCCNS(=O)(=O)c3cccc([C@@H]4CN(C)Cc5c(Cl)cc(Cl)cc54)c3)(CCC(=O)NCCOCCOCCNS(=O)(=O)c3cccc([C@@H]4CN(C)Cc5c(Cl)cc(Cl)cc54)c3)NC(=O)N3CCN(CCOCCO)CC3)cc2)C1 | 31% |  | 
2 | CCN1CCCC1CNC(=O)c1cc(S(N)(=O)=O)ccc1OC (stereo not given) [SULPIRIDE] |  | 36% | 
3 | CN1Cc2c(Cl)cc(Cl)cc2[C@H](c2ccc(S(=O)(=O)N(C)CCOCCOCCNC(=O)CCN(CCC(=O)NCCOCCOCCN(C)S(=O)(=O)c3cccc([C@@H]4CN(C)Cc5c(Cl)cc(Cl)cc54)c3)CCC(=O)NCCOCCOCCN(C)S(=O)(=O)c3cccc([C@@H]4CN(C)Cc5c(Cl)cc(Cl)cc54)c3)cc2)C1 | 64% |  | 
4 | CC(=O)Nc1ccc(OCC(O)CNC(C)C)cc1 (stereo not given) [PRACTOLOL] |  | 95% | 
5 | CN1Cc2c(Cl)cc(Cl)cc2[C@H](c2cccc(S(=O)(=O)NCCOCCOCCNC(=O)NCCCCNC(=O)NCCOCCOCCNS(=O)(=O)c3cccc([C@@H]4CN(C)Cc5c(Cl)cc(Cl)cc54)c3)c2)C1 |  |  | Activity (Rattus norvegicus [3]): Active; Activity (Rattus norvegicus [4]): Active
6 | O=C(O)P(=O)(O)O [FOSCARNET] |  | 17% | 
7 | CN1Cc2c(Cl)cc(Cl)cc2[C@H](c2cccc(S(=O)(=O)NCCOCCOCCNC(=O)CCC(CCC(=O)NCCOCCOCCNS(=O)(=O)c3cccc([C@@H]4CN(C)Cc5c(Cl)cc(Cl)cc54)c3)(CC(=O)NCCOCCOCCNS(=O)(=O)c3cccc([C@@H]4CN(C)Cc5c(Cl)cc(Cl)cc54)c3)NC(=O)CCC(=O)O)c2)C1 | 12% |  | Activity (Rattus norvegicus [5]): 49%
8 | Cc1ccccc1N1C(=O)c2cc(S(N)(=O)=O)c(Cl)cc2NC1C (stereo not given) [METOLAZONE] |  | 64% | 
9 | NC[C@H]1CC[C@H](C(=O)O)CC1 [TRANEXAMIC ACID] |  | 55% | 
10 | CC(=O)C(CCNC(=O)NCCOCCOCCNS(=O)(=O)c1cccc([C@@H]2CN(C)Cc3c(Cl)cc(Cl)cc32)c1)(CCNC(=O)NCCOCCOCCNS(=O)(=O)c1cccc([C@@H]2CN(C)Cc3c(Cl)cc(Cl)cc32)c1)CCNC(=O)NCCOCCOCCNS(=O)(=O)c1cccc([C@@H]2CN(C)Cc3c(Cl)cc(Cl)cc32)c1 | 42% |  | 
11 | O=C(O)c1cc(/N=N/c2ccc(O)c(C(=O)O)c2)ccc1O [OLSALAZINE] |  | 2.3% | 
12 | CN1Cc2c(Cl)cc(Cl)cc2[C@H](c2ccc(S(=O)(=O)NCCOCCOCCNC(=O)NCCCCNC(=O)NCCOCCOCCNS(=O)(=O)c3cccc([C@@H]4CN(C)Cc5c(Cl)cc(Cl)cc54)c3)cc2)C1.Cl.Cl |  |  | Activity (Rattus norvegicus [6]): 90%
13 | CC(C)NCC(O)COc1cccc2[nH]ccc12 (stereo not given) [PINDOLOL] |  | 92% | 
14 | CN1Cc2c(Cl)cc(Cl)cc2[C@H](c2cccc(S(=O)(=O)NCCOCCNC(=O)CCC(CCC(=O)NCCOCCOCCNS(=O)(=O)c3cccc([C@@H]4CN(C)Cc5c(Cl)cc(Cl)cc54)c3)(CCC(=O)NCCOCCOCCNS(=O)(=O)c3cccc([C@@H]4CN(C)Cc5c(Cl)cc(Cl)cc54)c3)NC(=O)[C@H]3CCCC[C@@H]3C(=O)O)c2)C1 | 63% |  | 
15 | N=C(N)NC(=O)c1nc(Cl)c(N)nc1N [AMILORIDE] |  |  | IC50 [7]: 1000 to 1600 nM; IC50 [8]: 1000 nM; IC50 [9]: > 100000 nM; IC50 [10]: 21000 nM
